We go through one compound from paper PMC6368365, “Didehydro-Cortistatin A Inhibits HIV-1 by Specifically Binding to the Unstructured Basic Region of Tat” (mBio, 2019).

The assay concerns the target T1, HIV Tat HXB3 (Human immunodeficiency virus type 1 group M subtype B, UniProt P69697).
T1 construct: pTatC6H-1 (NIH AIDS Reagent Program) plasmid encoding C-terminal 6xHistidine Tat1-86 (HXB3, subtype B); made in house; host or cells: E. coli BL21 (plasmid pTatC6H-1, NIH AIDS Reagent Program)
Kind of assay: Isothermal titration calorimetry of dCA binding to Tat. The arrangement: species or system HIV-1. The text has this:
Next, we studied the direct interaction of Tat with dCA using ITC. After gradual titration of Tat with dCA in the ITC cell, the integrated heat data of the dCA-Tat interaction were collected (Fig. 1G). This ITC titration curve fitted well with a single-site binding process with a nonlinear least-squares regression, allowing the determination of the association constant (Ka) and entropy (ΔS) and enthalpy (ΔH) changes, as well as the average number of binding sites (N). We determined a 1:1 binding stoichiometry with a Ka of ∼(9.39 ± 1.7) × 10^6 M^−1 (dissociation constant [Kd] = 100 nM). Moreover, dCA binds to Tat at 25°C with a negative (favorable) enthalpy of −3.5 ± 0.1 kcal mol^−1 and positive (favorable) entropy of +20.0 ± 0.5 cal mol^−1 K^−1. The favorable values of ΔH and ΔS are consistent with the characteristics of a combination of van der Waals, hydrophobic, and electrostatic interactions in the binding process. The difference between Tat/dCA affinity (ITC, 100 nM) and dCA inhibitory activity in cell-based assays (0.6 to 2 nM) (Table 2) ([10]) could be the result of the nature of the Tat-TAR feedback loop that amplifies activity in vivo; especially since the amount of Tat in vivo after infection is very low ([24]).
A detailed protocol for ITC is provided in Text S1.
Isothermal titration calorimetry. The measurements were conducted at 25 °C on a Microcal VP-ITC (Microcal, Inc.; Northampton MA). Titrations of HIV Tat HXB3 and HIV-1 TAR with dCA (or peptide, ^46SYGRKKRRQRRRPPQ^60) were done by injecting 250 μL into an isothermal sample chamber containing 1.5 mL HIV Tat HXB3 or HIV-1 TAR solution that was 10 μM in strand. Each experiment of this type was accompanied by the corresponding control experiment in which peptide or dCA injected into a solution of buffer alone. The duration of each injection was 8 s and the delay between the injections was 300 s and 180 s, the initial delay prior to the first injection was 300 s. Each injection generated a heat burst curve (microcalories/second vs. seconds) and the area under each curve was determined by integration [using the origin version 7.0 software (Microcal, Inc.; Northampton, MA)] to obtain the measure of the heat associated with that injection.
For orientation: In ITC the heat of successive injections is recorded.

T1 sequence (P69697 whole entry): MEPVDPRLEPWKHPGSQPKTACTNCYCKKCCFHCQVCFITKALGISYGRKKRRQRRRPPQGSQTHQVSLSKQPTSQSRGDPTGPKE

Take `CN(C)C1CC23CCC4(O2)C(=CCC2(C)C(c5ccc6ccncc6c5)=CCC24)C=C3C(O)C1O` (stereo not shown) [dCA, didehydro-cortistatin A]: the dissociation constant (Kd) (in general, the concentration at which binding is half-saturated) was 100 nM. In addition, for the setting “ITC, 25°C”, the “enthalpy (ΔH)” value is -3.5 ± 0.1 kcal/mol and the “entropy (ΔS)” value is “+20.0 ± 0.5 cal mol^−1 K^−1”. Moreover, where the note is “ITC, 25°C, single-site fit”, the “association constant (Ka)” value is given as “(9.39 ± 1.7) × 10^6 M^−1”.
